EP4722219A1 (Gan & Lee Pharmaceuticals Co., Ltd., priority 2023, dated 2024)
Where a chain is given by its changes, count along the chain named.

Assays:
Assay type in all cases: cell-based
VCaP cells = test: Inhibition of VCaP cell proliferation (WST-8); conditions: Homo sapiens, 168 hours
Description: On the first day of the experiment, VCaP cells were seeded at a density of 15,000 cells/well in a 96-well plate using DMEM medium containing 10% fetal bovine serum, with 100µL of cell suspension per well, and cultured overnight in a cell incubator at 37°C and 5% CO2. On the second day, 100µL of the compound of the present invention and the positive control ARV-110 (source: Anaiji) prepared in culture medium at different concentrations were added to each well. The final concentration of the compound was 9 concentration points of 5-fold serial dilution starting from 10 µM. […] On the ninth day, the 96-well cell culture plate was removed and 1/10 volume of WST-8 (Beytime, C0040) reagent was added to each well. The absorbance at 450nm was measured using a microplate reader (TECAN, F50).

LNCaP cells = test: Inhibition of LNCaP cell proliferation (WST-8); conditions: Homo sapiens, LNCaP FGC cells, 96 hours
Description: The inhibitory activity of compounds disclosed in the present invention on LNCaP cell proliferation
The cells were cultured overnight in a 37°C, 5% CO2 cell incubator. […] The final concentration of the compound was 9 concentration points of 5-fold serial dilution starting from 10 µM. […] The cells were cultured in a cell culture incubator at 37°C and 5% CO2 for 96 hours. On the sixth day, the 96-well cell culture plate was removed, and 1/10 volume of WST-8 (Beytime, C0040) reagent was added to each well. The absorbance at 450 nm was detected using a microplate reader (TECAN, F50).

AR protein [1] = target: T1, AR protein (Homo sapiens, UniProt P10275); test: AR protein degradation in VCaP cells (Western blot); conditions: 8h
T1 construct: host or cells: VCaP
T1 sequence (P10275 1-920): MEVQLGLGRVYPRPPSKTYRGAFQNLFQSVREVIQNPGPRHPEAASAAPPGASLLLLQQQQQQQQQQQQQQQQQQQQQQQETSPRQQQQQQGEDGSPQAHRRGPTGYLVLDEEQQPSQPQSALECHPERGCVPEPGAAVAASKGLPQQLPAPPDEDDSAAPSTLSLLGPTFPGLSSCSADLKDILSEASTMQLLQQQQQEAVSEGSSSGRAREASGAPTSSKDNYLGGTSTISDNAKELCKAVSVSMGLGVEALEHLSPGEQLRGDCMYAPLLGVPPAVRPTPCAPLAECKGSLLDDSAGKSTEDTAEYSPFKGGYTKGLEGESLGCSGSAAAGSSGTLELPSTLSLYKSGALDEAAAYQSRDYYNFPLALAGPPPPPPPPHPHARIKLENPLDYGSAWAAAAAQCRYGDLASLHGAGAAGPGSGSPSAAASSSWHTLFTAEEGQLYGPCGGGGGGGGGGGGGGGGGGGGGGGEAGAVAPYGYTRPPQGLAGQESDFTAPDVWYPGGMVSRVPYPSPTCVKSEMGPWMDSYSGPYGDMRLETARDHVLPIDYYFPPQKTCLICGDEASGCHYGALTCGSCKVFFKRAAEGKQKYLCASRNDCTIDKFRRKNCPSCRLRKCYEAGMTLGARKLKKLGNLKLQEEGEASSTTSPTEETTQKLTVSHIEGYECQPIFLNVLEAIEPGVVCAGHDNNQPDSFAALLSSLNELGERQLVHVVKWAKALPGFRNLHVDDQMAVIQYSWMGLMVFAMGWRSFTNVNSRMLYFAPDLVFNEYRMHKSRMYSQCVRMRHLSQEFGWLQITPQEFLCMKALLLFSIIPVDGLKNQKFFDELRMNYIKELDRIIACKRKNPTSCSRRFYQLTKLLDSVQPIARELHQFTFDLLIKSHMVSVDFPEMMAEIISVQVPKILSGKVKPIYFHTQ
Description: The degradation activity of the compounds disclosed in the present invention on AR protein in VCaP cells (cell source: ATCC)
The AR-positive human prostate cancer cells VCaP cultured in DMEM (GiBco catalog number 11995-065) containing 10% FBS (Hyclone catalog number SH30406.05) was inoculated in a six-well microplate (Thermo catalog number 140675) at a concentration of 3×10^5 cells/ well. After being cultured overnight in a carbon dioxide incubator (ESCO), the prepared compound of the present invention and the positive control sample ARV-766 (Annaiji) solution of different concentrations were added at a volume of 1 µL/well to make the final concentrations of the compound and the positive control sample reach 5nM and 0.5nM, respectively. At the same time, the corresponding solvent control was set and cultured for 8h. After 8h of culture, the culture medium was removed, and the cells were washed with PBS. RIPA lysis buffer containing 1% Protease Inhibitor Cocktail was added. After lysis and centrifugation, a total protein extract was obtained, and the protein concentration in the extract was detected by BCA method. Protein electrophoresis was performed using SDS-PAGE, and then the protein was transferred to a PVDF (Millipore Sigma catalog number PSRP010R5) membrane at a constant voltage of 100V for 60min. The PVDF membrane was placed in a 5% milk powder 1×TBST solution and blocked at room temperature for 1h. The primary antibody solution (Anti-Androgen receptor, Cell Signaling Technology catalog number: 5153S; 1:2000 dilution) was prepared and was incubated at 4°C overnight. The primary antibody solution was discarded and the PVDF membrane was washed with 1×TBST for 5 minutes each time, for three times. The secondary antibody solution (Thermo catalog number SA5-35571; 1:7500 dilution) was prepared and was incubated at room temperature for 1 hour. The secondary antibody solution was discarded and the PVDF membrane was washed with 1×TBST for 5 minutes each time, for three times. A dual-color infrared laser imaging system (Licor catalog number Odyssey CLX) was used for Western membrane imaging. Image Studio software was used to analyze the grayscale of the bands. GAPDH protein bands were also detected for each sample as the reference. The AR protein degradation rate of the compound and the positive control sample was calculated based on the grayscale of the protein bands.
Table 7 Degradation rate of AR protein in VCaP cells by the compounds disclosed in the present invention

AR protein [2] = target: T2, AR protein (Homo sapiens, UniProt P10275, T878A); test: AR protein degradation in LNCaP cells (Western blot); conditions: 8 hours
T2 construct: host or cells: LNCaP FGC
T2 sequence (P10275 1-920 T878A): T1 sequence (P10275 1-920) with T878A
Description: At the same time, the corresponding solvent control was set and cultured for 8 hours. After 8 hours of culture, the culture medium was removed, the cells were washed with PBS, and RIPA lysis buffer containing 1% Protease Inhibitor Cocktail was added. After lysis and centrifugation, the total protein extract was obtained, and the protein concentration in the extract was detected by BCA method. Protein electrophoresis was performed using SDS-PAGE, and then the protein was transferred to a PVDF (Millipore Sigma catalog number PSRP010R5) membrane at a constant voltage of 100V for 60 minutes. The PVDF membrane was placed in a 5% milk powder 1 ×TBST solution and blocked at room temperature for 1 hour. […] The primary antibody solution was discarded and the PVDF membrane was washed with 1×TBST for 5 minutes each time, for three times. […] The secondary antibody solution was discarded and the PVDF membrane was washed with 1 ×TBST for 5 minutes each time, for three times. A dual-color infrared laser imaging system (Licor catalog number Odyssey CLX) was used for Western membrane imaging. The Image Studio software was used to analyze the grayscale of the bands. GAPDH protein bands were also detected for each sample as the reference. The AR protein degradation rate of the compound and the positive control sample was calculated based on the grayscale of the protein bands.

T-47D cells = test: Inhibition of cell proliferation in T-47D cells (CCK-8); conditions: Homo sapiens, T47D, 144 h, 6 days treatment, CCK-8 cell viability
How it was run: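 Viability by CCK-8 after a 6-day, 37 °C/5% CO2 exposure of T-47D cells (3,000/well, RPMI-1640 + 10% FBS) to graded PROTAC concentrations. Inhibition rates gave the IC50.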

ERα [3] = target: T3, ERα (Homo sapiens, UniProt P03372); test: ERα degradation in MCF-7 cells (Western blot); set-up: host or cells: MCF-7; conditions: 4 hours
T3 sequence (P03372 1-595): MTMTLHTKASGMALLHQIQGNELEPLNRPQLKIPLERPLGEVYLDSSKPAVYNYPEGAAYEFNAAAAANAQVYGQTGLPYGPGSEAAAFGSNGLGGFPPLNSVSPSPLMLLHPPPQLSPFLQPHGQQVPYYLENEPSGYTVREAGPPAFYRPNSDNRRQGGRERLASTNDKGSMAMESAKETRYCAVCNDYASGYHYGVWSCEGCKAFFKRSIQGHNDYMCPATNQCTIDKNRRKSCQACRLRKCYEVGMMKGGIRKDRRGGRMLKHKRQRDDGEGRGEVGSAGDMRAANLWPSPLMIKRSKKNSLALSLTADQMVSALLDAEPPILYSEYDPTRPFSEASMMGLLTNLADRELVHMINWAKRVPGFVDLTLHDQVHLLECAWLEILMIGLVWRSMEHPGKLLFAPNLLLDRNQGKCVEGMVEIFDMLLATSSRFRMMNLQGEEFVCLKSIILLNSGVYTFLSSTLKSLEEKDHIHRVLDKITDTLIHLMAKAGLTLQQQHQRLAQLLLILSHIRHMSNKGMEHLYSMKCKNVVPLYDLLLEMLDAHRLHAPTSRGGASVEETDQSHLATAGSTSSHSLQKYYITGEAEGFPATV
How it was run: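 ERα degradation was quantified by immunoblot densitometry, ERα signal divided by internal-reference signal and compared with control. Compounds were applied to MCF-7 cells for 4 hours at final concentrations of 0.15–1000 nM, with 20 µg total protein loaded per lane.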

ERα [4] = target: T3, ERα; test: ERα degradation in T-47D cells (Western blot); conditions: 4 hours
How it was run: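 ERα was quantified by immunoblot of RIPA lysates (20 µg total protein), normalised to an internal reference band, and degradation was expressed against control. Lysates came from T-47D cells plated at 3×10^5 cells/well and dosed 4 hours at 37°C with compound at 0.15-1000 nM final concentration.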

MCF-7 cells = test: Inhibition of cell proliferation in MCF-7 cells (CCK-8); conditions: Homo sapiens, MCF7, 144 h, MCF-7 cell proliferation, 6 days treatment
How it was run: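 IC50 from CCK-8 viability-based inhibition after 6-day treatment of MCF-7 cells (800 cells/well, 10% FBS DMEM, 37 °C, 5% CO2) with serially varied compound concentrations.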

SMILES | IC50 (VCaP cells) [µM] | IC50 (LNCaP cells) [µM] | AR protein degradation rate at fixed concentration (%) at 0.0005 µM (AR protein [1]; 0.5 nM) [%] | AR protein degradation rate at fixed concentration (%) at 0.005 µM (AR protein [1]; 5 nM) [%] | percent AR protein degradation at a fixed concentration at 0.01 µM (AR protein [2]; 10 nM) [%] | percent AR protein degradation at a fixed concentration at 0.1 µM (AR protein [2]; 100 nM) [%] | IC50 (T-47D cells) [nM] | Degradation rate of ERα in MCF-7 cells (%) (ERα [3]; 1nM) | Degradation rate of ERα in MCF-7 cells (%) (ERα [3]; 10nM) | Degradation rate of ERα in T-47D cells (%) (ERα [4]; 1nM) | Degradation rate of ERα in T-47D cells (%) (ERα [4]; 10nM) | IC50 (MCF-7 cells) [nM]
C[C@H]1CC2(CCN(c3ccc(C(=O)N4CCC(CN5CCC6(CC5)COc5ccc(NC7CCC(=O)NC7=O)cc56)CC4)cc3)CC2)CN1c1ccc(C#N)c(Cl)c1 (stereo partly shown) [A-P-98, 2-chloro-4-((3 S)-8-(4-(4-((5-((2,6-dioxopiperidin-3-yl)amino)-2H-spiro[benzofuran-3,4'-piperidin]-1'-yl)methyl)piperidin-1-carbonyl)phenyl)-3-methyl-2,8-diazaspiro[4.5]decan-2-yl)benzonitrile] | 0.006 | 0.43 |  |  |  |  |  |  |  |  |  | 
COc1cc(O[C@H]2C(C)(C)[C@H](NC(=O)c3ccc(N4CCC(CN5CCC6(CC5)COc5c6ccc6c5n(C)c(=O)n6C5CCC(=O)NC5=O)CC4)cc3)C2(C)C)ccc1C#N (stereo partly shown) [A-P-28] |  | 20.7 | 80 | 80 | 64 | 32 |  |  |  |  |  | 
Cn1c(=O)n(C2CCC(=O)NC2=O)c2ccc3c(c21)OCC31CCN(C(=O)C2CN(CC3CCN(c4ccc([C@@H]5c6ccc(O)cc6CC[C@@H]5c5ccccc5)cc4)CC3)C2)CC1 (stereo partly drawn) [ER-P-25, 3-(1'-(1-((1-(4-((1R,2S)-6-hydroxy-2-phenyl-1,2,3,4-tetrahydronaphthalen-1-yl)phenyl)piperidin-4-yl)methyl)azetidine-3-carbonyl)-1-methyl-2-oxo-1,2-dihydro-3H,7H-spiro[benzofuro[6,7-d]imidazole-6,4'-piperidin]-3-yl)piperidine-2,6-dione] |  |  |  |  |  |  | 0.84 | 49 | 53 | 77 | 71 | 1.26
